Patent US8501793B2, “Blood flow promoters for cauda equina tissues” (Ono Pharmaceutical Co., Ltd., priority 2003, dated 2013)

Test system: rat
Experiment: measurement of the cauda equina blood flow and the blood pressure in urethane-anesthetized rat
Assay type: in vivo
Settings: continuous infusion through caudal vein for 30 minutes, dose not given; for the increase rate of the cauda equina blood flow: observed until 30 minutes after, laser-Doppler flowmetry; for decrease of the blood pressure: systemic blood pressure from left carotid artery
Description: The common procedure based on the fundamental biological means was used as all procedures. Furthermore, the measuring method of the present invention was modified to improve the accuracy and/or sensitivity of measurement for evaluating the compound of the present invention. The detailed experimental method was as follows. • (i) The measurement of the cauda equina blood flow and the blood pressure Experiment: 1.5g/kg of urethane was administered intraperitoneally to the rat to be anesthetized, and the catheter, which is for measurement of blood pressure and ventricular rate, was placed in left carotid artery in supine position. The rat was reversed to prone position and the lumbar part was incised in the median line. The laminectomy was given to the fifth lumbar vertebra and the spinal cord (cauda equina) was exposed. The cauda equina blood flow was measured by the laser-Doppler flowmetry (OMEGAFLD FLO-NI and ADVANCE LASER FLOWMETER ALF21N, OMEGA WAVE Inc.) through a noncontact probe (ST-N type, OMEGA WAVE Inc.) and recorded with LINEARCORDER (Graphtech). The systemic blood pressure and the ventricular rate were measured from a left carotid artery with amplifier for the pressure measurement (GOULD) through a pressure transducer and recorded with LINEARCORDER (Graphtech).
After confirming each parameter of blood pressure, ventricular rate and blood flow was stabilized, the test compound was administrated by continuous infusion through the winged needle placed in caudal vein for 30 minutes. It observed until 30 minutes after the administration and the increase rate of the cauda equina blood flow was calculated. The increase rate of the cauda equina blood flow (%)=(B−A)/A×100 • A: the cauda equina blood flow before the administration of the test compound • B: the cauda equina blood flow after the administration of the test compound

Structure (SMILES) | the increase rate of the cauda equina blood flow [%] | decrease of the blood pressure [mmHg]
CC(O)(C/C=C/[C@H]1CCC(=O)[C@@H]1CCSc1nc(C(=O)O)cs1)CC1CCCCC1 (stereo partly drawn) [compound 53, 2-[(2-{(1R,2R)-2-[(1E)-5-cyclohexyl-4-hydroxy-4-methyl-1-pentenyl]-5-oxocyclopentyl}ethyl)sulfanyl]-1,3-thiazole-4-carboxylic acid] | 31 | 10
O=C(O)c1csc(SCCN2C(=O)OC[C@@H]2/C=C/[C@@H](O)C2(CCCCF)CCC2)n1 [compound 8-1, 2-{[2-((4S)-4-{(1E,3R)-3-[1-(4-fluorobutyl)cyclobutyl]-3-hydroxy-1-propenyl}-2-oxo-1,3-oxazolidin-3-yl)ethyl]sulfanyl}-1,3-thiazole-4-carboxylic acid] | 35 | 6
